The record followed here is the METLIN SMRT retention time set (Domingo-Almenara et al. 2019).

This data set is described as follows: gradient 5% acetonitrile 3 min, to 50% in 2 min, to 85% in 15 min, held 3 min, 100 µL/min. The following applies: column: Zorbax Extend-C18 2.1 x 50 mm; eluents: water / acetonitrile, 0.1% formic acid. Put shortly: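 Pure standards were run in mixtures of ~100 molecules by HPLC coupled to a quadrupole time-of-flight mass spectrometer. The column was a Zorbax Extend-C18 (2.1 × 50 mm, 1.8 μm) at 100 μL/min, with water and acetonitrile each containing 0.1% formic acid, in positive and negative ionization mode. Dead and dwell volumes were 40 μL and 900 μL. Retention time was taken from computationally picked adduct peaks, each manually inspected, with data collected over 3 months.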
`Cc1ccc(C)c(CN2CCn3c(nn(C)c3=O)C2)c1` displayed an RP-LC retention time of 747 s.

For the compound `CCOC(=O)c1ccc(NC(=O)Cn2c(=O)nc(N3CCC(C)CC3)c3ccccc32)cc1`, the RP-LC retention time came to 872 s.

In turn, `Cc1ccn2c(Nc3ccccc3C)c(-c3cc(Br)ccc3F)nc2c1` yielded an RP-LC retention time of 814 s.

`CN1C(=O)C2(CCN(C(=O)COc3ccc(Cl)cc3)C2)c2ccccc21` (stereo not given) displayed an RP-LC retention time of 838 s.

The compound `CCCN1C(=O)COc2ccc(-c3noc(/C=C/c4ccc(OC)cc4)n3)cc21` showed an RP-LC retention time of 1190 s.

With `Cc1ccc(-c2noc(CSc3nccn3-c3ccc(C)cc3)n2)cc1`, the RP-LC retention time stood at 1020 s.

`CCOc1ccc(NC(=O)Cn2nc(N3CCOCC3)c3ccccc3c2=O)cc1` had an RP-LC retention time of 774 s.

For the compound `CCC(C(=O)NCc1ccc(C)o1)n1nc(C)c2c(C)n(-c3ccccc3)nc2c1=O` (stereo not given), the RP-LC retention time was 862 s.

`Fc1ccc(-c2nnc(Cc3nc(-c4ccccc4F)no3)o2)cc1` returned an RP-LC retention time of 1010 s.

`Cc1cc(N2CCN(C)CC2)n2nc(-c3ccc(Cl)cc3)nc2n1` had an RP-LC retention time of 658 s.

The compound `CCc1ccc(N2C(=O)CN(S(C)(=O)=O)CC2(C)C(=O)NCc2ccc(Cl)cc2)cc1` (stereo not given) had an RP-LC retention time of 874 s.

Compound `Cn1cc(S(=O)(=O)N2CCCCC2)cc1C(=O)Nc1ccc2c(c1)OCCO2` registered an RP-LC retention time of 917 s.

`COCCn1c(C2CCN(S(=O)(=O)c3ccc(F)cc3)C2)nc2cccnc21` (stereo not given) gave an RP-LC retention time of 763 s.

The compound `CCC(=O)Nc1ccc(-n2cnc(C(=O)NC(C)c3ccc(C)cc3)c2)nc1` (stereo not given) had an RP-LC retention time of 781 s.

In the case of `Cc1ccc(Cn2nc3c(S(=O)(=O)N4CCOCC4)cccn3c2=O)c(C)c1`, the RP-LC retention time was found to be 849 s.

As to `O=S(=O)(c1cccnc1)N1CCc2[nH]nc(-c3ccc(F)cc3)c2C1`, the RP-LC retention time is 740 s.

In turn, `CCN1C(=O)C(C)(C(=O)NCc2cccc(OC)c2)Oc2cccnc21` (stereo not given) displayed an RP-LC retention time of 829 s.

As to `CN(C)CCNC(=O)Cn1c(=O)n(-c2ccccc2)c2ncccc21`, the RP-LC retention time amounted to 579 s.

`Cc1cc(C)cc(NC(=O)Cn2c(=O)c(CCC(=O)NC3CCCC3)nc3ccccc32)c1` showed an RP-LC retention time of 916 s.

Turning to `CCOc1cc(=O)n2c(c1C(=O)Nc1ccc(Cl)c(C)c1)CCCC2`, the RP-LC retention time was 829 s.

`Cc1cc2c(=O)n(CC(=O)Nc3ccc(Cl)cc3F)ccc2s1` gave an RP-LC retention time of 871 s.

`CN(Cc1nc(-c2ccc(N3CCCC3)nc2)no1)C1CCCCC1` showed an RP-LC retention time of 569 s.

`CCN(CCCNC(=O)C1CCCN(c2ncnc3c2nc2n3CCCCC2)C1)Cc1ccccc1` (stereo not given) returned an RP-LC retention time of 623 s.

Turning to `Cc1noc(C2(NC(=O)c3ccc4c(c3)OCO4)CCCCC2)n1`, the RP-LC retention time worked out at 758 s.

`O=C(Nc1nnc(C(F)(F)F)s1)C1CCN(C(=O)c2ccc(F)cc2)CC1` returned an RP-LC retention time of 815 s.

As for `COc1ccc(OC)c(NC(=O)N2CCc3cn(C)c4cccc(c34)C2)c1`, the RP-LC retention time was found to be 943 s.

As to `Cc1cccc(NC(=O)N2CCCC2c2cc(C)on2)c1` (stereo not given), the RP-LC retention time turned out to be 748 s.

On to `Cc1cc(C)n(-c2ccc(=O)n(C(C)C(=O)NCCc3csc(-c4ccccc4)n3)n2)n1` (stereo not given), for which the RP-LC retention time came to 780 s.

Turning to `Cc1ccc(Cl)cc1NC(=O)N1CCC(OC2CCN(S(C)(=O)=O)CC2)CC1`, the RP-LC retention time was 801 s.

Compound `CC(C)n1cnnc1CC1CN(C(=O)Nc2cc(F)ccc2F)C1` yielded an RP-LC retention time of 631 s.

In turn, `COC(=O)COc1cc(-c2cccc(Cl)c2)nc2ccc(NC(=O)C3CC3)cc12` displayed an RP-LC retention time of 823 s.

`COc1ccc(Nc2ncccc2S(N)(=O)=O)cc1OC` gave an RP-LC retention time of 666 s.

The compound `O=C(Nc1cc(-c2cccs2)nn1CCO)C1(c2ccccc2)CCOCC1` showed an RP-LC retention time of 734 s.

`COC(=O)c1cc(S(=O)(=O)N2CCCC2C(=O)Nc2ccc(C)cc2C)cn1C` (stereo not given): the RP-LC retention time is 915 s.

`O=C(CCSc1ccccc1)Nc1ccc2c(c1)CN(C(=O)C1CC1)CC2` showed an RP-LC retention time of 816 s.

For the compound `CCOc1ccc(NC(=O)N2CCCC2c2nc(-c3ccccc3OC)no2)cc1` (stereo not given), the RP-LC retention time came to 859 s.

As for `Cc1cccn2c(NC(=O)c3ccc(Br)cc3)c(-c3ccccc3)nc12`, the RP-LC retention time came out at 715 s.

Consider `CCN1CCCn2nc(C3CCN(C(=O)c4cncc(Br)c4)CC3)cc2C1=O`, for which the RP-LC retention time came out at 659 s.

Turning to `Cc1ccc(OCC(=O)N(Cc2ccc(Br)o2)C2CCS(=O)(=O)C2)cc1C` (stereo not given), the RP-LC retention time came to 996 s.

`O=C(Nc1cc(-c2ccccn2)no1)C1CCCCC1` gave an RP-LC retention time of 827 s.

Take `COc1ccccc1C(=O)Nc1ccc2c(c1)Sc1ncccc1C(=O)N2C`: the RP-LC retention time was found to be 810 s.

In turn, `OC[C@H]1O[C@@H](n2cnc3c(NC4CCCCC4)ncnc32)[C@H](O)[C@@H]1O` gave an RP-LC retention time of 656 s.

With `CCn1nccc1-c1cccc(-c2noc(-c3ccccn3)n2)c1`, the RP-LC retention time came out at 897 s.

`CSc1ccc(Cl)c(C(=O)Nc2ccc3c(N4CCOCC4)ncnc3c2)c1` had an RP-LC retention time of 669 s.

`Cc1c(C(=O)C(=O)NCCc2ccccc2)c2ccccc2n1C`: the RP-LC retention time turned out to be 887 s.

As for `COC(=O)c1ccc(NC(=O)C(=O)NCC2CCN(C(=O)Oc3ccccc3)CC2)cc1`, the RP-LC retention time came out at 868 s.

As to `CCc1c(C2CCN(C(=O)Nc3ccc(C)c(C)c3)CC2)noc1N`, the RP-LC retention time turned out to be 793 s.

Compound `CC(NC(=O)c1c(O)c2cccnc2n(-c2cccc(F)c2)c1=O)c1ccc(F)cc1` (stereo not given) yielded an RP-LC retention time of 1210 s.

In turn, `CCCn1cc(CNC(=O)C2CCCN(c3nnc4ccc(C(F)(F)F)cn34)C2)c(C)n1` (stereo not given) yielded an RP-LC retention time of 709 s.

In the case of `CCN(c1cccc(C)c1)S(=O)(=O)c1cc2n(c1)CCCN(C)C2=O`, the RP-LC retention time amounted to 783 s.

`CC(C)c1ccc(NC(=O)Cn2nc3c4ccc(Cl)cc4ncn3c2=O)cc1` displayed an RP-LC retention time of 671 s.

`COc1cccc(CCC(=O)N2CCN(C3=NC=CN4CC(C)N=C34)CC2)c1` (stereo not given) returned an RP-LC retention time of 591 s.

Consider `Cc1cc2[nH]c(C(=O)Nc3cc(Cl)ccc3F)c(CN3CCOCC3)c2s1`, for which the RP-LC retention time came out at 892 s.

In turn, `CCCn1cc(S(=O)(=O)NCc2ccccc2C)c2cccnc21` had an RP-LC retention time of 946 s.

With `Cc1cccc(S(=O)(=O)N2CCC(c3cc(=O)n4nccc4n3C)CC2)c1`, the RP-LC retention time was 718 s.

In turn, `CC(C)Oc1ccc(CNC(=O)CN2CCN(Cc3ccc(F)cc3)C2=O)cc1` gave an RP-LC retention time of 865 s.

In turn, `COc1ccc(-c2ccc(=O)n(Cc3nc(-c4ccccc4OC)no3)n2)cc1` had an RP-LC retention time of 891 s.

Consider `O=C1CCCN1CCCNc1nc(C2CC2)nc2c1CCC2`, for which the RP-LC retention time was determined as 581 s.

Regarding `CCCCOc1ccc(NC(=O)N(Cc2ccccn2)Cc2ccco2)cc1`, the RP-LC retention time turned out to be 788 s.

As to `Cc1cc(NC(=O)C2CCN(C(=O)c3cccc(-n4cnnn4)c3)CC2)no1`, the RP-LC retention time was 621 s.
